Assay [1] relates to antibodies in sera from SARS patients (sera 1a, 1b, 2, 6, 37, 62, London, SARS-yellow, SARS-green). The class given is binding, human. Further details: Binding of serum 6 to linear peptides of protein X1 of SARS-CoV Urbani / Binding of serum 37 to linear peptides of protein X1 of SARS-CoV Urbani / Binding of serum 6 to looped/cyclic peptide (PEPSCAN-ELISA) / Binding of serum 37 to looped/cyclic peptide (PEPSCAN-ELISA) / Binding of serum 37 to looped/cyclic peptides of protein X1 of SARS-CoV Urbani / Binding of serum 6 to linear peptides of protein X2 / Binding of serum 37 to linear peptides of protein X2 / Binding of serum 37 to looped/cyclic peptides of protein X2 of SARS-CoV Urbani / Binding of serum 6 to linear peptides of protein M of SARS-CoV Urbani / Binding of serum 37 to linear peptides of protein M of SARS-CoV Urbani / Binding of serum 6 to looped/cyclic peptides of protein M of SARS-CoV Urbani / Binding of serum 37 to looped/cyclic peptides of protein M of SARS-CoV Urbani / Binding of serum 6 to linear peptides of protein X3 of SARS-CoV Urbani / Binding of serum 37 to linear peptides of protein X3 of SARS-CoV Urbani / Binding of serum 37 to looped/cyclic peptides of protein X3 of SARS-CoV Urbani / Binding of serum 6 to linear peptides of protein X4 of SARS-CoV Urbani / Binding of serum 37 to linear peptides of protein X4 of SARS-CoV Urbani / Binding of serum 37 to looped/cyclic peptides of protein X4 of SARS-CoV Urbani / Binding of serum 6 to linear peptides of protein X5 of SARS-CoV Urbani / Binding of serum 37 to linear peptides of protein X5 of SARS-CoV Urbani / Binding of serum 37 to looped/cyclic peptides of protein X5 of SARS-CoV Urbani / Binding of serum 6 to linear peptides of protein N of SARS-CoV Urbani / Binding of serum 37 to linear peptides of protein N of SARS-CoV Urbani / Binding of serum 6 to linear peptide (PEPSCAN-ELISA) / Binding of serum 1a to looped/cyclic peptides of protein N of SARS-CoV Urbani / Binding of serum 1b to looped/cyclic peptides of protein N of SARS-CoV Urbani / Binding of serum 2 to looped/cyclic peptides of protein N of SARS-CoV Urbani / Binding of serum 6 to looped/cyclic peptides of protein N of SARS-CoV Urbani / Binding of serum 37 to looped/cyclic peptides of protein N of SARS-CoV Urbani / Binding of serum 62 to looped/cyclic peptides of protein N of SARS-CoV Urbani / Binding of serum London to looped/cyclic peptides of protein N of SARS-CoV Urbani / Binding of serum SARS-green to looped/cyclic peptides of protein N of SARS-CoV Urbani: unit not given here.

For assay [2], the system named is control sera (pooled serum of ten healthy LUMC hospital workers; commercial negative donor pooled serum from the Dutch bloodbank). In kind it is binding, human. Details: Binding of Control serum LUMC to linear peptides / Binding of Control serum Blood-bank to linear peptides / Binding of Control serum LUMC to looped peptides / Binding of Control Serum Blood-Bank to Looped peptides / Binding of Control serum LUMC to linear peptides of the protein M of SARS-CoV Urbani / Binding of Control serum Blood-bank to linear peptides of the protein M of SARS-CoV Urbani / Binding of Control serum LUMC to looped peptides of the protein M of SARS-CoV Urbani / Binding of Control Serum Blood-Bank to Looped peptides of the protein M of SARS-CoV Urbani: unit not given here.

Assay [3] has as its system rabbit serum obtained by immunizing a rabbit with the SARS-CoV strain Frankfurt 1. In kind it is binding. Further details: Binding of a rabbit serum to linear peptides / Binding of a rabbit serum to looped peptides / Rabbit serum linear peptides / Rabbit serum looped peptides / Binding of a rabbit serum to linear peptides of protein N of SARS-CoV Urbani (Rabbit serum linear peptides) / Binding of a rabbit serum to looped/cyclic peptides of protein N of SARS-CoV Urbani (Rabbit serum looped peptides): unit not given here.

The values that follow come from patent US20070128217A1 (priority 2003, published 2007).

On to AFQHQNSKKTTKLVV, for which, in assay [1], the “Binding of serum 1a to linear peptides of protein X2” value is 0.6, the “Binding of serum 1a to looped/cyclic peptides of protein X2 of SARS-CoV Urbani” value is 0.5, the “Binding of serum 1b to linear peptides of protein X2” value stood at 0.5 and the “Binding of serum 1b to looped/cyclic peptides of protein X2 of SARS-CoV Urbani” value was 0.5. In assay [1], the “Binding of serum 2 to linear peptides of protein X2” value was 0.6, the “Binding of serum 2 to looped/cyclic peptides of protein X2 of SARS-CoV Urbani” value is recorded as 0.4, the “Binding of serum 6 to linear peptides of protein X2” value is given as 0.9 and the “Binding of serum 6 to looped/cyclic peptides of protein X2 of SARS-CoV Urbani” value is recorded as 0.4. In addition, in assay [1], the “Binding of serum 37 to linear peptides of protein X2” value was 0.8, the “Binding of serum 37 to looped/cyclic peptides of protein X2 of SARS-CoV Urbani” value is on record as 0.5, the “Binding of serum 62 to linear peptides of protein X2” value is recorded as 0.4 and the “Binding of serum 62 to looped/cyclic peptides of protein X2 of SARS-CoV Urbani” value was 0.6. In addition, in assay [1], the “Binding of serum London to linear peptides of protein X2” value turned out to be 0.4, the “Binding of serum London to looped/cyclic peptides of protein X2 of SARS-CoV Urbani” value stood at 0.2, the “Binding of serum SARS-green to linear peptides of protein X2” value is listed as 0.2 and the “Binding of serum SARS-green to looped/cyclic peptides of protein X2 of SARS-CoV Urbani” value is 0.3. Besides, in assay [1], the “Binding of serum SARS-yellow to linear peptides of protein X2” value is reported as 0.7 and the “Binding of serum SARS-yellow to looped/cyclic peptides of protein X2 of SARS-CoV Urbani” value came out at 0.5. Moreover, in assay [2], the “Binding of Control Serum Blood-Bank to Looped peptides” value is on record as 0.7, the “Binding of Control serum Blood-bank to linear peptides” value is listed as 0.6, the “Binding of Control serum LUMC to linear peptides” value stood at 0.7 and the “Binding of Control serum LUMC to looped peptides” value was 0.6. Further, the “Recognition of the peptide by the rabbit serum” value in assay [3] is recorded as “recognized”.
Consider AGMEAQFLYLYALIY, for which, in assay [1], the “Binding of serum 1a to linear peptides of protein X1 of SARS-CoV Urbani” value is recorded as 0.7, the “Binding of serum 1a to looped/cyclic peptide (PEPSCAN-ELISA)” value is recorded as 0.5, the “Binding of serum 1b to linear peptides of protein X1 of SARS-CoV Urbani” value is listed as 0.6 and the “Binding of serum 1b to looped/cyclic peptide (PEPSCAN-ELISA)” value turned out to be 0.4. Besides, in assay [1], the “Binding of serum 2 to linear peptides of protein X1 of SARS-CoV Urbani” value came to 0.6, the “Binding of serum 2 to looped/cyclic peptide (PEPSCAN-ELISA)” value worked out at 0.4, the “Binding of serum 6 to linear peptides of protein X1 of SARS-CoV Urbani” value stood at 0.4 and the “Binding of serum 6 to looped/cyclic peptide (PEPSCAN-ELISA)” value was 0.3. In assay [1], the “Binding of serum 37 to linear peptides of protein X1 of SARS-CoV Urbani” value turned out to be 0.5, the “Binding of serum 37 to looped/cyclic peptide (PEPSCAN-ELISA)” value is listed as 0.5, the “Binding of serum 62 to linear peptides of protein X1 of SARS-CoV Urbani” value is 0.4 and the “Binding of serum 62 to looped/cyclic peptide (PEPSCAN-ELISA)” value stood at 0.6. Further, in assay [1], the “Binding of serum London to linear peptides of protein X1 of SARS-CoV Urbani” value is on record as 0.2, the “Binding of serum London to looped/cyclic peptide (PEPSCAN-ELISA)” value is reported as 0.2, the “Binding of serum SARS-green to linear peptides of protein X1 of SARS-CoV Urbani” value was determined as 0.1 and the “Binding of serum SARS-green to looped/cyclic peptide (PEPSCAN-ELISA)” value was determined as 0.2. Besides, in assay [1], the “Binding of serum SARS-yellow to linear peptides of protein X1 of SARS-CoV Urbani” value amounted to 0.2 and the “Binding of serum SARS-yellow to looped/cyclic peptide (PEPSCAN-ELISA)” value is 0.3. In assay [2], the “Binding of Control Serum Blood-Bank to Looped peptides” value is reported as 0.5, the “Binding of Control serum Blood-bank to linear peptides” value is recorded as 0.5, the “Binding of Control serum LUMC to linear peptides” value came to 0.6 and the “Binding of Control serum LUMC to looped peptides” value came out at 0.6. In assay [3], the “Binding of a rabbit serum to linear peptides” value was determined as 0.1 and the “Binding of a rabbit serum to looped peptides” value worked out at 0.6.
For AIAMACIVGLMWLSY, in assay [1], the “Binding of serum 1a to linear peptides of protein M of SARS-CoV Urbani” value was 0.7, the “Binding of serum 1a to looped/cyclic peptides of protein M of SARS-CoV Urbani” value came out at 0.5, the “Binding of serum 1b to linear peptides of protein M of SARS-CoV Urbani” value was determined as 0.5 and the “Binding of serum 1b to looped/cyclic peptides of protein M of SARS-CoV Urbani” value is reported as 0.3. For the same sequence, in assay [1], the “Binding of serum 2 to linear peptides of protein M of SARS-CoV Urbani” value stood at 0.6, the “Binding of serum 2 to looped/cyclic peptides of protein M of SARS-CoV Urbani” value is given as 0.4, the “Binding of serum 6 to linear peptides of protein M of SARS-CoV Urbani” value worked out at 0.4 and the “Binding of serum 6 to looped/cyclic peptides of protein M of SARS-CoV Urbani” value turned out to be 0.6. In addition, in assay [1], the “Binding of serum 37 to linear peptides of protein M of SARS-CoV Urbani” value worked out at 0.7, the “Binding of serum 37 to looped/cyclic peptides of protein M of SARS-CoV Urbani” value is given as 0.5, the “Binding of serum 62 to linear peptides of protein M of SARS-CoV Urbani” value came to 0.7 and the “Binding of serum 62 to looped/cyclic peptides of protein M of SARS-CoV Urbani” value turned out to be 0.4. In addition, in assay [1], the “Binding of serum London to linear peptides of protein M of SARS-CoV Urbani” value is on record as 0.4, the “Binding of serum London to looped/cyclic peptides of protein M of SARS-CoV Urbani” value amounted to 0.2, the “Binding of serum SARS-green to linear peptides of protein M of SARS-CoV Urbani” value is 0.3 and the “Binding of serum SARS-green to looped/cyclic peptides of protein M of SARS-CoV Urbani” value is reported as 4.4. Further, in assay [1], the “Binding of serum SARS-yellow to linear peptides of protein M of SARS-CoV Urbani” value was 0.1 and the “Binding of serum SARS-yellow to looped/cyclic peptides of protein M of SARS-CoV Urbani” value is reported as 0.8. Also, in assay [2], the “Binding of Control Serum Blood-Bank to Looped peptides of the protein M of SARS-CoV Urbani” value is reported as 0.6, the “Binding of Control serum Blood-bank to linear peptides of the protein M of SARS-CoV Urbani” value was 0.7, the “Binding of Control serum LUMC to linear peptides of the protein M of SARS-CoV Urbani” value was found to be 0.3 and the “Binding of Control serum LUMC to looped peptides of the protein M of SARS-CoV Urbani” value is listed as 0.6. For the same sequence, in assay [3], the “Rabbit serum linear peptides” value came out at 0.4 and the “Rabbit serum looped peptides” value is listed as 0.0.
As to ALGKVLPFHRWHTMV, in assay [1], the “Binding of serum 1a to linear peptides of protein X5 of SARS-CoV Urbani” value turned out to be 0.9, the “Binding of serum 1a to looped/cyclic peptides of protein X5 of SARS-CoV Urbani” value stood at 0.4, the “Binding of serum 1b to linear peptides of protein X5 of SARS-CoV Urbani” value was 0.5 and the “Binding of serum 1b to looped/cyclic peptides of protein X5 of SARS-CoV Urbani” value is given as 0.0. For the same sequence, in assay [1], the “Binding of serum 2 to linear peptides of protein X5 of SARS-CoV Urbani” value was found to be 0.7, the “Binding of serum 2 to looped/cyclic peptides of protein X5 of SARS-CoV Urbani” value turned out to be 0.6, the “Binding of serum 6 to linear peptides of protein X5 of SARS-CoV Urbani” value was 0.6 and the “Binding of serum 6 to looped/cyclic peptides of protein X5 of SARS-CoV Urbani” value is 0.3. Besides, in assay [1], the “Binding of serum 37 to linear peptides of protein X5 of SARS-CoV Urbani” value came to 0.6, the “Binding of serum 37 to looped/cyclic peptides of protein X5 of SARS-CoV Urbani” value is 0.5, the “Binding of serum 62 to linear peptides of protein X5 of SARS-CoV Urbani” value stood at 0.7 and the “Binding of serum 62 to looped/cyclic peptides of protein X5 of SARS-CoV Urbani” value is given as 0.5. Also, in assay [1], the “Binding of serum London to linear peptides of protein X5 of SARS-CoV Urbani” value is given as 0.7, the “Binding of serum London to looped/cyclic peptides of protein X5 of SARS-CoV Urbani” value is 0.2, the “Binding of serum SARS-green to linear peptides of protein X5 of SARS-CoV Urbani” value was found to be 0.5 and the “Binding of serum SARS-green to looped/cyclic peptides of protein X5 of SARS-CoV Urbani” value is listed as 0.6. In assay [1], the “Binding of serum SARS-yellow to linear peptides of protein X5 of SARS-CoV Urbani” value stood at 0.2 and the “Binding of serum SARS-yellow to looped/cyclic peptides of protein X5 of SARS-CoV Urbani” value was found to be 0.1. For the same sequence, in assay [2], the “Binding of Control Serum Blood-Bank to Looped peptides” value was 0.1, the “Binding of Control serum Blood-bank to linear peptides” value was found to be 0.8, the “Binding of Control serum LUMC to linear peptides” value was found to be 0.5 and the “Binding of Control serum LUMC to looped peptides” value was 0.5. Besides, in assay [3], the “Rabbit serum linear peptides” value worked out at 0.6 and the “Rabbit serum looped peptides” value was found to be 0.1.
